This passage reports EC50 results from PubChem BioAssay AID651913 (NMMLSC, 2012).

The term EC50 denotes the concentration needed to bring the measured effect to its halfway point.

In this assay the test system is MG13-hCCR5 cells, FAP-MG2p fluorogen binding, flow cytometry MCF. Briefly: interference with FAP-CCR5 fluorogen signal, dose response, counter-screen for beta2AR agonist project, cell-based, FAP-tagged human CCR5, Powderset5 (AID 651913). For orientation: The purpose of a counterscreen is to sort out artefacts and off-target activity.

On to `CN(CC(=O)N1CCN(c2ccc(F)cc2)CC1)S(=O)(=O)c1cc(Cl)ccc1Cl`, for which the EC50 is 0.0545 µM. With `CCC1CCCCN1S(=O)(=O)c1ccc(NC(C)=O)cc1` (stereo not given), the concentration giving a half-maximal response (EC50) is 0.455 µM. As to `CN(CC(=O)N1CCN(c2ccc(F)cc2)CC1)S(=O)(=O)c1ccc(Br)cc1`, the EC50 was 1.03 µM. In the case of `O=C(C1CCCN1S(=O)(=O)c1ccc(Cl)cc1)N1CCN(c2ccccn2)CC1` (stereo not given), the EC50 is 0.257 µM. With `CN(CC(=O)N1CCN(c2ccccn2)CC1)S(=O)(=O)c1ccc(Cl)cc1`, the EC50 was 0.0108 µM.
